Results: patent US9975888B2, “Aryl linked imidazole and triazole derivatives and methods of use thereof for improving the pharmacokinetics of a drug” (MERCK SHARP & DOHME CORP., priority 2013, dated 2018)

What was measured:
Format in all cases: biochemical
CYP3A4 [1] = target: T1, CYP3A4 (Homo sapiens, UniProt P08684); assay: Cocktail assay for CYPs, midazolam 1′-hydroxylation (CYP3A4), human liver microsomes; set-up: 0.1 mg/mL protein human liver microsomes (BD Gentest); tissue BD Gentest; host or cells: human liver microsomes; conditions: 2 μM midazolam, 0.1 mg/mL human liver microsomes, 10 min at 37° C.; read-out: CYP IC50 (nM) 3A4 (MDZ)
Outline: (§1)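 Pooled human liver microsomes (0.1 mg/mL) with a probe cocktail of 10 μM phenacetin, 5 μM dextromethorphan and 2 μM midazolam plus NADPH, pH 7.4, 10 min at 37° C. Each metabolite was quantified by LC/MS/MS against a tolbutamide internal standard. IC50 came from % inhibition at 6 concentrations (e.g. 0.0032–10 μM) by non-linear regression.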
Target sequence in this assay (P08684 whole entry): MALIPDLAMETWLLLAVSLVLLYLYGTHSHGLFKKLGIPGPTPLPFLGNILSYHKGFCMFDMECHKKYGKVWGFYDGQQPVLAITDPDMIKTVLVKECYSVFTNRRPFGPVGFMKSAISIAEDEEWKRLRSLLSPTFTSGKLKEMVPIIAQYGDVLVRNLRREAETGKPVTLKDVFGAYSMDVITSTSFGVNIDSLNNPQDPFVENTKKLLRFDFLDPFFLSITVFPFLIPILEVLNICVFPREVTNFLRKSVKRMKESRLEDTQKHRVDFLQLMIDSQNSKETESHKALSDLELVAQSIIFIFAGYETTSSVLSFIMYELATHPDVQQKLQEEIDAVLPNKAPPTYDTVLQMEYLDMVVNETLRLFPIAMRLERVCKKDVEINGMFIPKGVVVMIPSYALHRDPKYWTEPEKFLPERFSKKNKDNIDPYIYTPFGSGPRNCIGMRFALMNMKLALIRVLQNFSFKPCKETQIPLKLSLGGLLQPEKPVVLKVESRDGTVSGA

CYP1A2 = target: T2, CYP1A2 (Homo sapiens, UniProt P05177); assay: Cocktail assay for CYPs, phenacetin O-deethylation (CYP1A2), human liver microsomes; conditions: 10 μM phenacetin, 0.1 mg/mL human liver microsomes, 10 min at 37° C.; read-out: CYP IC50 (nM) 1A2
T2 construct: 0.1 mg/mL protein human liver microsomes (BD Gentest); tissue BD Gentest; host or cells: human liver microsomes
T2 sequence (P05177 1-516): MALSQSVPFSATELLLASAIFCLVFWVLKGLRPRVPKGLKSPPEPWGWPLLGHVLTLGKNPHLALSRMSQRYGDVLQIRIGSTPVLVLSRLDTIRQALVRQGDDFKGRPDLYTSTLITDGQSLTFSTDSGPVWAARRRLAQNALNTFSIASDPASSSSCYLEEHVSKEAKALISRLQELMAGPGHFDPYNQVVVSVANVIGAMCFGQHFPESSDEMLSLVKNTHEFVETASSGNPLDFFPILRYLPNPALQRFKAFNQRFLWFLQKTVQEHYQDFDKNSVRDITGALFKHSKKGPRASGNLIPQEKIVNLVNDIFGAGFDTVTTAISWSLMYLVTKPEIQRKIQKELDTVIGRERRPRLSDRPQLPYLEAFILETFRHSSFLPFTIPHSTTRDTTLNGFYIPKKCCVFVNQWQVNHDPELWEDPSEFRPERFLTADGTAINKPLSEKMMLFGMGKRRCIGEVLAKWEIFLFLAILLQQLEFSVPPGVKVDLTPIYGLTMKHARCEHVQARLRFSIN
Outline: as §1

CYP2C9 = target: T3, CYP2C9 (Homo sapiens, UniProt P11712); assay: Cocktail assay for CYPs, diclofenac 4′-hydroxylation (CYP2C9), human liver microsomes; conditions: 5 μM diclofenac, 0.1 mg/mL human liver microsomes, 10 min at 37° C.; read-out: CYP IC50 (nM) 2C9
T3 construct: 0.1 mg/mL protein human liver microsomes (BD Gentest); tissue BD Gentest; host or cells: human liver microsomes
Outline: (§2)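 Pooled human liver microsomes (0.1 mg/mL) with probe cocktail incl. 5 μM diclofenac (CYP2C9) and 30 μM mephenytoin (CYP2C19), 1 mM NADPH, pH 7.4 phosphate buffer, 10 min at 37° C. Metabolites quantified by LC/MS/MS against internal standard; % inhibition versus no-inhibitor control, IC50 by non-linear regression.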

CYP2D6 = target: T4, CYP2D6 (Homo sapiens, UniProt P10635); assay: Cocktail assay for CYPs, dextromethorphan O-demethylation (CYP2D6), human liver microsomes; conditions: 5 μM dextromethorphan, 0.1 mg/mL human liver microsomes, 10 min at 37° C.; read-out: CYP IC50 (nM) 2D6
T4 construct: 0.1 mg/mL protein human liver microsomes (BD Gentest); tissue BD Gentest; host or cells: human liver microsomes
Outline: as §1

CYP3A4 [2] = target: T1, CYP3A4; assay: IC50 vs CYP3A by inhibition of lopinavir metabolism in human liver microsomes; set-up: 0.01 mg/mL protein human liver microsomes (BD Gentest); tissue BD Gentest; host or cells: human liver microsomes; conditions: 1.5 μM lopinavir, 0.01 mg/mL human liver microsomes, 8 min at 37° C.; read-out: CYP IC50 (nM) 3A4 (LPV)
Outline: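 Human liver microsomes (0.01 mg/mL) with 1.5 μM lopinavir, 1 mM NADPH, 3.3 mM MgCl2 in 100 mM potassium phosphate pH 7.4, 8 min at 37 °C, six compound concentrations. Summed M2/M3/M4 hydroxy metabolites quantified by LC/MS/MS against tolbutamide; % inhibition normalised between no-inhibitor and 5 μM ketoconazole controls, IC50 by non-linear regression.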
Target sequence in this assay (P08684 2-503): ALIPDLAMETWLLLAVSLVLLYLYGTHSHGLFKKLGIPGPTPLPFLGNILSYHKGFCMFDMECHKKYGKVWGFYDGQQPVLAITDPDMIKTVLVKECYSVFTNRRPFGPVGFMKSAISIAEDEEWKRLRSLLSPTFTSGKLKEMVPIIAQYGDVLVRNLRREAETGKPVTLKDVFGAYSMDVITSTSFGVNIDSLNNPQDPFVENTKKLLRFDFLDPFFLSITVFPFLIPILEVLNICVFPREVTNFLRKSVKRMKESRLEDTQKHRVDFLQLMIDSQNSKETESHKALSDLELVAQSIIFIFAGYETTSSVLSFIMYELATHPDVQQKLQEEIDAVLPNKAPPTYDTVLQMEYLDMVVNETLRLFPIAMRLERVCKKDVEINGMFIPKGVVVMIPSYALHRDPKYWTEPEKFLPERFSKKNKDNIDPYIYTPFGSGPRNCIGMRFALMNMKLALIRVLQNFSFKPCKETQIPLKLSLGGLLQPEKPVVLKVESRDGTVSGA

CYP2C19 = target: T5, CYP2C19 (Homo sapiens, UniProt P33261); assay: Cocktail assay for CYPs, mephenytoin 4′-hydroxylation (CYP2C19), human liver microsomes; conditions: 30 μM mephenytoin, 0.1 mg/mL human liver microsomes, 10 min at 37° C.; read-out: CYP IC50 (nM) 2C19
T5 construct: 0.1 mg/mL protein human liver microsomes (BD Gentest); tissue BD Gentest; host or cells: human liver microsomes
Outline: as §2

T5 sequence (P33261 whole entry): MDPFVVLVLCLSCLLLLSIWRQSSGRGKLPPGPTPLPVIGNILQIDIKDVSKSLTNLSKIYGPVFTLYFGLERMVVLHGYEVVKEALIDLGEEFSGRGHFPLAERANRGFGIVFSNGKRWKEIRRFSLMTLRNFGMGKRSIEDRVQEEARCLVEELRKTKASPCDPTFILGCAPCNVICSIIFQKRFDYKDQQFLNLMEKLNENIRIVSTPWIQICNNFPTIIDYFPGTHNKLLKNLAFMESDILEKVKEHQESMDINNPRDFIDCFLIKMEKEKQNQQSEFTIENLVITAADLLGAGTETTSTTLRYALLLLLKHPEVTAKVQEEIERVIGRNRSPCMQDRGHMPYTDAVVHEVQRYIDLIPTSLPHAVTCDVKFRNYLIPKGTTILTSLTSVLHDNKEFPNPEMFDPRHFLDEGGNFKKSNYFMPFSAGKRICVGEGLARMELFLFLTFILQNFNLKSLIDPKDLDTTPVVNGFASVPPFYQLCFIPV
T3 sequence (P11712 whole entry): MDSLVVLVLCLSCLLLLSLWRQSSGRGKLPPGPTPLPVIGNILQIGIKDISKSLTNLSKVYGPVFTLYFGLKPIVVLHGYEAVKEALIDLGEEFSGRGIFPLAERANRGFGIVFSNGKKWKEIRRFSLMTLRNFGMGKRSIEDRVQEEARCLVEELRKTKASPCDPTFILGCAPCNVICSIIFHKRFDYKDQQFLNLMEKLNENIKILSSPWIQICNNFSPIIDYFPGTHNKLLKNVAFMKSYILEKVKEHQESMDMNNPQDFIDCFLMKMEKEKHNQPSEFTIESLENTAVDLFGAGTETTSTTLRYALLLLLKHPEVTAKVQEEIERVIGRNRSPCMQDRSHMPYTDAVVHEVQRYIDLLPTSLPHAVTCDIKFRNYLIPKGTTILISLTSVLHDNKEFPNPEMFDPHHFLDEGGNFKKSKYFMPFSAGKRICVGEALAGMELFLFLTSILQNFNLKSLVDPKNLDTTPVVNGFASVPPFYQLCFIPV
T4 sequence (P10635 whole entry): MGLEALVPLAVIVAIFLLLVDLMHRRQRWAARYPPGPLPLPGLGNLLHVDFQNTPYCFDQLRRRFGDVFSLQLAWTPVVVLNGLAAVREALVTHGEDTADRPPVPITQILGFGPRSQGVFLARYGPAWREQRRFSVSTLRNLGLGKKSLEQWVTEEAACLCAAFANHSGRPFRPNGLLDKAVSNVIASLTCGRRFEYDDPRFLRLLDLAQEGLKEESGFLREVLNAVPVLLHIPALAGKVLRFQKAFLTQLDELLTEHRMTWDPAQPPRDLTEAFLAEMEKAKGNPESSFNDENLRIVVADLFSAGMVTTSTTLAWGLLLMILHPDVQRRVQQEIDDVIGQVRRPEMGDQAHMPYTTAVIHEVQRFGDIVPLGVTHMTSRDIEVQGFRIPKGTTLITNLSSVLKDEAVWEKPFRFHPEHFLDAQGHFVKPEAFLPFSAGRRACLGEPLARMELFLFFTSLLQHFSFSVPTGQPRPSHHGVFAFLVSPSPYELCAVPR

| Compound | IC50 (CYP3A4 [1]) [nM] | IC50 (CYP1A2) [nM] | IC50 (CYP2C9) [nM] | IC50 (CYP2D6) [nM] | IC50 (CYP3A4 [2]) [nM] | IC50 (CYP2C19) [nM] |
| --- | --- | --- | --- | --- | --- | --- |
| CC(=O)Nc1ncc(S(=O)(=O)NCc2ccc(-c3cncn3CCc3ccc(F)cc3)cn2)s1 [Compound 11, N-(5-(N-((5-(1-(4-fluorophenethyl)-1H-imidazol-5-yl)pyridin-2-yl)methyl)sulfamoyl)thiazol-2-yl)acetamide] | 197 | > 10000 | 7470 | 8390 | > 100 | 912 |
| CC(=O)Nc1ncc(S(=O)(=O)NCc2ccc(-c3cncn3CCc3ccc(F)cc3)cc2)s1 [Compound 12, N-(5-(N-(4-(1-(4-fluorophenethyl)-1H-imidazol-5-yl)benzyl)sulfamoyl)thiazol-2-yl)acetamide] | 8.7 | 2400 | 49 | 675 | 5 | 300 |
| CC(=O)Nc1ncc(S(=O)(=O)NCc2cccc(-c3cncn3CCc3ccc(F)cc3)c2)s1 [Compound 13, N-(5-(N-(3-(1-(4-fluorophenethyl)-1H-imidazol-5-yl)benzyl)sulfamoyl)thiazol-2-yl)acetamide] | 5.9 | 99 | 65 | 348 | 5.3 | 357 |
| O=S(=O)(NCCc1ccccc1-c1cncn1CCc1ccc(F)cc1)c1cccnc1 [Compound 14, N-(2-(1-(4-fluorophenethyl)-1H-imidazol-5-yl)phenethyl)pyridine-3-sulfonamide] | 137 | > 10000 | 7410 | 1100 | 54 | > 10000 |
| CC(=O)Nc1ncc(S(=O)(=O)N2Cc3cccc(-c4cncn4CCc4ccc(F)cc4)c3C2)s1 [Compound 15, N-(5-((4-(1-(4-fluorophenethyl)-1H-imidazol-5-yl)isoindolin-2-yl)sulfonyl)thiazol-2-yl)acetamide] | 6.4 | > 10000 | 1230 | 1400 | 8 | 155 |
| CN1CCN(c2ncc(S(=O)(=O)N3Cc4cccc(-c5cncn5CCc5ccc(F)cc5)c4C3)s2)CC1 [Compound 16, 5-((4-(1-(4-fluorophenethyl)-1H-imidazol-5-yl)isoindolin-2-yl)sulfonyl)-2-(4-methylpiperazin-1-yl)thiazole] | 13.2 | 3100 | 486 | 360 | 9.5 | 1260 |
| O=S(=O)(NCc1ccccc1-c1cncn1CCc1ccc(F)cc1)c1cccnc1 [Compound 17, N-(2-(1-(4-fluorophenethyl)-1H-imidazol-5-yl)benzyl)pyridine-3-sulfonamide] | 10.5 | > 10000 | > 10000 | 5200 | 35.9 | > 10000 |
| CC(=O)Nc1ncc(S(=O)(=O)NCc2ccccc2-c2cncn2CCc2ccc(F)cc2)s1 [Compound 18, N-(5-(N-(2-(1-(4-fluorophenethyl)-1H-imidazol-5-yl)benzyl)sulfamoyl)thiazol-2-yl) acetamide] | 15.8 | > 10000 | > 10000 | 7180 | 18.6 | 2930 |
| O=S(=O)(NCc1ccccc1-c1cncn1CCc1ccc(F)cc1)c1cnc(N2CCN3C[C@H](O)C[C@H]3C2)s1 [Compound 19, N-(2-(1-(4-fluorophenethyl)-1H-imidazol-5-yl)benzyl)-2-((7R,8aS)-7-hydroxyhexahydropyrrolo[1,2-a]pyrazin-2 (1H)-yl)thiazole-5-sulfonamide] | 9.5 | > 10000 | 6270 | 3200 | 16.4 | > 10000 |
| COCCn1cncc1-c1ccccc1C1CCCN1S(=O)(=O)c1cnc(NC(C)=O)s1 (stereo not drawn) [Compound 20, N-(5-((2-(2-(1-(2-methoxyethyl)-1H-imidazol-5-yl)phenyl)pyrrolidin-1-yl)sulfonyl)thiazol-2-yl)acetamide] | 38.5 | > 10000 | > 10000 | > 10000 | ≥ 100 | > 10000 |
| CC(=O)Nc1ncc(S(=O)(=O)N2CCCC2c2ccccc2-c2cncn2CCc2ccc(F)cc2)s1 (stereo not drawn) [Compound 21, N-(5-((2-(2-(1-(4-fluorophenethyl)-1H-imidazol-5-yl)phenyl)pyrrolidin-1-yl)sulfonyl)thiazol-2-yl) acetamide] | 13.7 | 5890 | 4410 | 4050 | 5.6 | 4190 |
| Cn1cncc1-c1ccccc1C1CCCN1S(=O)(=O)c1cnc(N2CCN3C[C@H](O)C[C@H]3C2)s1 (stereo partly drawn) [Compound 24, (7R,8aS)-2-(5-((2-(2-(1-methyl-1H-imidazol-5-yl)phenyl)pyrrolidin-1-yl)sulfonyl)thiazol-2-yl)octahydro-pyrrolo[1,2-a] pyrazin-7-ol] | 32.5 | > 10000 | > 10000 | > 10000 | 29.5 | > 10000 |
| O=S(=O)(c1cnc(Cl)c(Br)c1)N1CCCC1c1ccccc1-c1cncn1CCc1ccc(F)cc1 (stereo not drawn) [Compound 25, 3-bromo-2-chloro-5-((2-(2-(1-(4-fluoro-phenethyl)-1H-imidazol-5-yl)phenyl)pyrrolidin-1-yl)sulfonyl) pyridine] | 50.3 | 9490 | 2220 | 2140 | 23 | 1890 |
| O=S(=O)(c1ccc2c(c1)OCO2)N1CCCC1c1ccccc1-c1cncn1CCc1ccc(F)cc1 (stereo not drawn) [Compound 26, 5-(2-(1-(benzo[d][1,3]dioxol-5-ylsulfonyl)pyrrolidin-2-yl)phenyl)-1-(4-fluorophenethyl)-1H-imidazole] | 3.8 | 5020 | 1160 | 1650 | 1 | 1360 |
| COc1ccc(OC)c(S(=O)(=O)N2CCCC2c2ccccc2-c2cncn2CCc2ccc(F)cc2)c1 (stereo not drawn) [Compound 27, 5-(2-(1-((2,5-dimethoxyphenyl)sulfonyl)pyrrolidin-2-yl)phenyl)-1-(4-fluorophenethyl)-1H-imidazole] | 36.1 | 2650 | 1910 | 3480 | 41 | 3800 |
| O=S(=O)(c1ccc(N2CCOCC2)nc1)N1CCCC1c1ccccc1-c1cncn1CCc1ccc(F)cc1 (stereo not drawn) [Compound 29, 4-(5-((2-(2-(1-(4-fluorophenethyl)-1H-imidazol-5-yl)phenyl)pyrrolidin-1-yl)sulfonyl)pyridin-2-yl)morpholine] | 8.3 | 3820 | 1860 | 2930 | 7.6 | 3260 |
| CC(=O)Nc1ncc(S(=O)(=O)N2CCCC2c2ccccc2-c2cncn2C)s1 (stereo not drawn) [Compound 30, N-(5-((2-(2-(1-methyl-1H-imidazol-5-yl)phenyl)pyrrolidin-1-yl)sulfonyl)thiazol-2-yl) acetamide] | 18.8 | > 10000 | > 10000 | > 10000 | 37.7 | > 10000 |
